Data from US7078059B2, “Treatment of bone diseases” (Shire Holdings AG, priority 2000, dated 2006).

What was measured:
[1] = test system: osteoclasts cultured on bone slices; assay: In vitro bone resorption assay (osteoclasts on bovine bone slices, CrossLaps); assay type: cell-based, rat; conditions: LA number = ng/ml lanthanum; lanthanum (III) ion = any of the concentrations tested (100-15000 ng/ml); bafilomycin Al 10 nM
Source text: The method of osteoclast culture on bone slices was originally described by Boyde et al. (1984) and by Chambers et al. (1984). For cell culture, we used a method slightly modified from the original methods (Lakkakorpi et al. 1989, Lakkakorpi and Väänänen, 1991). The rate of bone resorption in the cultures was originally determined by counting the number of resorption pits on each bone or dentine slice using a microscope with phase contrast objectives (Sundquist et al. 1990). Later, the pits were visualized using Wheat Germ Agglutinin lectin that specifically binds to the resorbed area in bone (Selander et al. 1994), making it possible to quantify the total resorbed area using a microscope and computer-assisted image analysis system (Laitala and Väänänen 1994, Hentunen et al. 1995). We used a commercially available method (CrossLaps for cultures, Osteometer Biotech, Herlev, Denmark) to detect the amount of collagen cross-links released into the culture medium as an index of the bone resorption rate (Bagger et al., 1999).
The study protocol uses a method where osteoclasts are cultured on bone slices and allowed to resorb bone. The system is ideal for determining the effect of drug candidates on the bone resorbing activity of osteoclasts. Drug candidates are added into the cell cultures at the beginning of the culture period, and the osteoclasts allowed to resorb bone for 3 days. The amount of bone resorbed during the culture period is determined and compared to the amount of bone resorbed in control cultures (those cultured in the absence of drug candidates).
Transverse 0.1 mm thick slices of cortical bone were cut from the diaphysis of fresh bovine femurs (Atria Slaughterhouse, Oulu, Finland) using a low-speed diamond saw, cleaned by ultrasonication in multiple changes of sterile distilled water, and stored at 4° C. before use. Long bones were removed from 1-day-old rat pups killed by decapitation. […] The resulting suspension of dispersed cells and bone fragments was agitated using a plastic pipette. Larger fragments were allowed to sediment for a few seconds and the supernatant was seeded onto the bone slices pre-wetted in the medium. After a settling period of 30 minutes at 37° C., the bone slices were washed by dipping in fresh medium, and then transferred to wells in 24-well culture dishes containing osteoclast culture medium. The bone slices were incubated in a humidified atmosphere of 95% air and 5% carbon dioxide at 37° C. for 72 hours.
After the culture period, the amount of bone resorption was determined by measuring the amount of collagen cross-links released into the culture medium using a commercial kit (CrossLaps for cultures, Osteometer Biotech) according to the manufacturer s instructions. The number of osteoclasts in each culture was determined by microscopic counting of the amount of TRAP-positive multinuclear cells, and the results are given as the number of collagen cross-links released per one osteoclast.
In the bone resorption assay, the amount of medium CrossLaps (nM) released into the culture medium was determined and the number of osteoclasts in the corresponding cultures calculated. The medium CrossLaps amounts were divided with the osteoclast numbers in the corresponding cultures, and the results are given on Table 1 as relative medium CrossLaps amounts per osteoclasts. The relative values were obtained by dividing each individual value with the mean value of the baseline group.

mature osteoblasts = assay: In vitro bone formation assay (calcium deposition into bone nodules); assay type: cell-based, mouse; conditions: LA number = ng/ml lanthanum; lanthanum (III) / lanthanum (III) ion = all concentrations tested, 100 to 15,000 ng/ml; 17-estradiol 10^−10M
Protocol: The activity of mature osteoblasts can be determined by quantifying their ability to form mineralized bone matrix. This is done by demineralizing the formed bone matrix, and determining the amount of calcium released. Thus, this culture system fulfills requirements of an in vitro model useful for studying the bone formation activity of mature osteoblasts. […] At the end of the culture, the amount of calcium deposited during the culture period was determined, and the amount of bone formation (calcium deposition) calculated. […] Extracts of 50 μl were complexed with 1 ml determined o-cresol-phthalein-complexon. The colorimetric reaction was determined at 570 nm in a spectrophotometer. Absolute calcium concentrations were determined by comparison with a calibrated standard provided by the vendor. In this study, the effect of lanthanum carbonate on bone formation was tested. […] The amount of bone formation was determined by measuring the amount of calcium deposited into bone nodules formed by mature osteoblasts. The results are shown as the amount of calcium released (mmol/L) from the bone nodules after HCl extraction. The baseline values are too low to show the results using relative amounts as was done in the other assays.

[2] = test system: mouse bone marrow derived osteoprogenitor cells; assay: In vitro osteoblast differentiation assay (cellular alkaline phosphatase); assay type: cell-based; conditions: LA number = ng/ml lanthanum; lanthanum (III) ion = 100-15000 ng/ml; 17-estradiol 10^−10 M
Source text: We have established a culture model in which mouse bone marrow derived osteoprogenitor cells first proliferate and then differentiate to osteoblasts capable of forming mineralized bone nodules (Qu et al. 1998, Qu et al. 1999). We confirmed this by following the expression of several markers of the osteoblastic phenotype and by studying the morphology of cultures at light and electron microscopic level. […] Thus, this culture system fulfills requirements of an in vitro model useful for studying differentiation of osteoprogenitor cells into bone synthesizing osteoblasts. […] Animals were killed by cervical dislocation. Both femora were removed and the soft tissues were detached aseptically. Metaphyses from both ends were cut off and bone marrow cells were collected by flushing the diaphysis with culture medium: phenol red-free-α-modified essential medium (α-MEM (Gibco BRL, Paisley, UK)). […] The cells were cultured for 6 days and half of the media […] days. […] Cells were washed with warm PBS and adherent cells were detached using trypsin-EDTA. […] The test substances were added at the beginning of the secondary culture without estrogen, and every time when the medium was changed. The number of osteoblasts formed was determined by measuring cellular alkaline phosphatase (ALP) activity in the culture. […] Louis, Mo., USA), and overnight freezing. ALP activity was determined colorimetrically using p-nitrophenylphosphate as substrate at pH 9.7 and determining the optical density at 405 nm. In parallel, protein contents of the wells were determined by the BIO-RAD protein assay, and the specific ALP activity is expressed as units/mg protein. […] Osteoblast differentiation was determined by measuring cellular alkaline phosphatase (ALP) activities and total protein amounts from cell lysates. The ALP activities were divided with the corresponding protein amounts to obtain specific activities of ALP. The results are shown as relative specific activities obtained by dividing each individual value with the mean value of the baseline group.

Row | Structure (SMILES) | Effect on bone resorption / bone resorbing activity of mature osteoclasts, in words [1] | Effect on bone formation activity of mature osteoblasts, in words (mature osteoblasts) | Effect on osteoblast differentiation, in words [2]
1 | CO/C1=C\C(C)=C\[C@@H](C)[C@@H](O)[C@@H](C)C/C(C)=C/C=C/[C@H](OC)[C@@H]([C@@H](C)[C@@H](O)[C@H](C)[C@@]2(O)C[C@@H](O)[C@H](C)[C@@H](C(C)C)O2)OC1=O [Bafilomycin Al, reference compound] | completely inhibited bone resorption |  | 
2 | C[C@]12CC[C@@H]3c4ccc(O)cc4CC[C@H]3[C@@H]1CC[C@@H]2O [17-β estradiol, reference compound] |  | activated bone formation significantly | activated osteoblast differentiation significantly
